# According to patent US9434763B2, “Derivatives of pyridinone as inhibitors for tissue transglutaminase” (ZEDIRA GMBH, priority 2012, dated 2016):
# Key:
# Assay type in all cases: biochemical
# [1] = target: T1, tissue transglutaminase (TG2) (Homo sapiens, UniProt P21980); assay: Comparative transglutaminase selectivity assay with casein and dansylcadaverine as substrates (kit T036): TG2; conditions: casein as substrate (apparent IC50)
# T1 construct: purchased Zedira T036 (kit)
# T1 sequence (P21980 1-687): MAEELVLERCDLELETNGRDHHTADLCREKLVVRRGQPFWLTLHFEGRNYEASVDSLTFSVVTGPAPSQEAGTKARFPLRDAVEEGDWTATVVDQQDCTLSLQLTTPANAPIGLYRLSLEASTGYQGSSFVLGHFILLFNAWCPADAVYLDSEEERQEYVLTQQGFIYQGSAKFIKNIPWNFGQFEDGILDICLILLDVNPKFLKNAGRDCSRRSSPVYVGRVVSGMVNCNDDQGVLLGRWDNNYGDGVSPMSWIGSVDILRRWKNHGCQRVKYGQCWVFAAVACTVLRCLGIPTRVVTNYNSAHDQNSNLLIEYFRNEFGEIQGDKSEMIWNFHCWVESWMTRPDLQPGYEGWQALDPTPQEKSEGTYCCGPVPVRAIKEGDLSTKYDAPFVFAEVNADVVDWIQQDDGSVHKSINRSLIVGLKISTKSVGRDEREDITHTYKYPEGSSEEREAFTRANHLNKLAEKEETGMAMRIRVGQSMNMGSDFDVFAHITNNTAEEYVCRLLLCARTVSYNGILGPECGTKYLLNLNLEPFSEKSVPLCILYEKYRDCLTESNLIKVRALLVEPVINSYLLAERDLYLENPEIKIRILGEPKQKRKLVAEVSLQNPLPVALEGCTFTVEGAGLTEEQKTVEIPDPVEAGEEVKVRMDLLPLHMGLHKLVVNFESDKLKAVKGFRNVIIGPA
# Excerpt: (§1) The comparative determination of different transglutaminases to determine the selectivity was made with casein and dansylcadaverine as substrates. Therefore, the kit T036 (Zedira, Darmstadt; Refs: Lorand et al, Anal Biochem, 1971, 44:221-31) as well as transglutaminase products T009 (transglutaminase 1), T012 (transglutaminase 3), T021 (transglutaminase 6) and T027 (plasma transglutaminase, factor XIII) are used. Therefore, two different IC50 values for the compounds are given.
# (§2) The evaluation of the resulting enzyme activity is done using the slope of the straight line obtained by the increase in fluorescence.
# (§3) To determine the non-inhibited enzyme activity, DMSO instead of inhibitor stock solution is used. IC50 values are determined by plotting the resulting enzyme activity against the logarithm of the inhibitor concentration. IC50 is defined as the concentration of inhibitor resulting in 50% of enzyme activity.
# (§4) It should be noted that it was measured here against casein as substrate, which is why other apparent inhibition values (IC50 value) result.
# [2] = target: T2, TG6 (transglutaminase 6) (Homo sapiens, UniProt O95932); assay: Comparative transglutaminase selectivity assay with casein and dansylcadaverine as substrates: TG6; conditions: casein as substrate
# T2 construct: purchased Zedira T021
# T2 sequence (O95932 1-706): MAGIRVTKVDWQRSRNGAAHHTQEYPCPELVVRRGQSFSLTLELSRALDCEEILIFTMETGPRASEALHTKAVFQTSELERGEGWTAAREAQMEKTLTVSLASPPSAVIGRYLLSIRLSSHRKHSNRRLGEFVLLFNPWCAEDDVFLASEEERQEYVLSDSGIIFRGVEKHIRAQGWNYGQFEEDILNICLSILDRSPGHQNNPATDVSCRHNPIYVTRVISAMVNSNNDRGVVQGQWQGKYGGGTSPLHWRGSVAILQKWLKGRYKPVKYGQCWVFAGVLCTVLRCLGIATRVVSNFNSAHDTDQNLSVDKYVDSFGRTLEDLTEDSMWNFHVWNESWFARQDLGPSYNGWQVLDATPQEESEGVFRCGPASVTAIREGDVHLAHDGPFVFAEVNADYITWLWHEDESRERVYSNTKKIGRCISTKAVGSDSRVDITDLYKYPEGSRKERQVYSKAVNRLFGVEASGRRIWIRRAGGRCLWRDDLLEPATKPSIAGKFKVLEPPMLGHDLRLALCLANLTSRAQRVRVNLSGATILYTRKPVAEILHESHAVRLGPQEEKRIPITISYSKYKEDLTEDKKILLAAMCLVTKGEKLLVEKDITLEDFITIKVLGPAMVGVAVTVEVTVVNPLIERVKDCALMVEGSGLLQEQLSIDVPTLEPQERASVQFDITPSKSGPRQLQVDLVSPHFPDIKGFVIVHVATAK
# Excerpt: as §1, §2, §3, §4
# [3] = target: T3, FXIII (plasma transglutaminase, factor XIII) (Homo sapiens, UniProt P00488); assay: Comparative transglutaminase selectivity assay with casein and dansylcadaverine as substrates: FXIII; conditions: casein as substrate
# T3 construct: purchased Zedira T027
# T3 sequence (P00488 1-732): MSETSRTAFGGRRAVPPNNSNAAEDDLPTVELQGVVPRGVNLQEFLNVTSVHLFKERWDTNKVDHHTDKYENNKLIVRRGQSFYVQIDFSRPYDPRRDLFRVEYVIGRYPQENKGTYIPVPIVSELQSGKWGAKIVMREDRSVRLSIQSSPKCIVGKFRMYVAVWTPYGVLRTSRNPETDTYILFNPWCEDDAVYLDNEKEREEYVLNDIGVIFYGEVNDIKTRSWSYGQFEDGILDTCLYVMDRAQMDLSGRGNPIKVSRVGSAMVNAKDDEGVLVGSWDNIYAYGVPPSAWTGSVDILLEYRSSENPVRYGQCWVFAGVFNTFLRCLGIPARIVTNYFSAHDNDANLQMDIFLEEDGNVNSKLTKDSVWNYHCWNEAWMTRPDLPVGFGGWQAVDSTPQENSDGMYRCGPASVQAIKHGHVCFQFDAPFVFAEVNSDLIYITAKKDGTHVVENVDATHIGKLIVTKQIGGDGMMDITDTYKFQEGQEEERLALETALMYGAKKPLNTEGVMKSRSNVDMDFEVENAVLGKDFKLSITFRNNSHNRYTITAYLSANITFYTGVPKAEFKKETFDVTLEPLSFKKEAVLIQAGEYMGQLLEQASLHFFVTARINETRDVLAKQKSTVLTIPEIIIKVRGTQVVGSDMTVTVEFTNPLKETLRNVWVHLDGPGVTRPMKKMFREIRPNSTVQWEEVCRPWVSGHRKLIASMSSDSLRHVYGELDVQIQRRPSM
# Excerpt: as §1, §2, §3, §4
IC50 [1],IC50 [2],IC50 [3],SMILES
0.461 µM,9.3 µM,79.6 µM,"CCOC(=O)/C=C/CC[C@H](NC(=O)c1ccccc1)C(=O)Nc1cccn(CC(=O)N[C@H](C(=O)O)[C@H](C)CC)c1=O [A59, (2S,3R)-2-(2-(3-((S,E)-2-Benzamido-7-ethoxy-7-oxohept-5-enamido)-2-oxopyridin-1(2H)-yl)acetamido)-3-methylpentanoic acid]"
0.397 µM,47.8 µM,78.2 µM,"CCC(CC)CNC(=O)Cn1cccc(NC(=O)[C@H](CC/C=C/C(=O)OC)NC(C)=O)c1=O [A79, (S,E)-Methyl 6-acetamido-7-(1-(2-(2-ethylbutylamino)-2-oxoethyl)-2-oxo-1,2-dihydropyridin-3-ylamino)-7-oxohept-2-enoate]"
